Experiment [1] concerns the target T1, Glucose-6-phosphatase catalytic subunit 1 (Homo sapiens) (UniProt P35575).
T1 sequence (whole entry): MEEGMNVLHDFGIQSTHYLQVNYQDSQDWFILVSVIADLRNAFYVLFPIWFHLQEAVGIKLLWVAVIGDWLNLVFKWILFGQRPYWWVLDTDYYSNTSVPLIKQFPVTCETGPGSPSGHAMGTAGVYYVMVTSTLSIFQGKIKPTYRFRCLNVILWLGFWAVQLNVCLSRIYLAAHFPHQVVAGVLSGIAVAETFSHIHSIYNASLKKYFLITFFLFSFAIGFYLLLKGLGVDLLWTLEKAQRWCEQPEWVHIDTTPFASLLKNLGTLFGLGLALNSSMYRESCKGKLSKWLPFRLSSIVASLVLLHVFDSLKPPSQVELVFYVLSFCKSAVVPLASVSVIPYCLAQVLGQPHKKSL
Kind of experiment: Inhibition of glucose-6-phosphatase (unknown origin) using glucose-6-phosphate as substrate assessed as inorganic phosphate production at 100 uM after 30 min.

The species entered for another experiment is Homo sapiens. Nature of the experiment: Inhibition of glycogen phosphorylase (unknown origin) assessed as inorganic phosphate production at 100 uM after 30 min.
Experiment [2] addresses T2, Tyrosine-protein phosphatase non-receptor type 1 (Homo sapiens) (UniProt P18031).
T2 sequence (whole entry): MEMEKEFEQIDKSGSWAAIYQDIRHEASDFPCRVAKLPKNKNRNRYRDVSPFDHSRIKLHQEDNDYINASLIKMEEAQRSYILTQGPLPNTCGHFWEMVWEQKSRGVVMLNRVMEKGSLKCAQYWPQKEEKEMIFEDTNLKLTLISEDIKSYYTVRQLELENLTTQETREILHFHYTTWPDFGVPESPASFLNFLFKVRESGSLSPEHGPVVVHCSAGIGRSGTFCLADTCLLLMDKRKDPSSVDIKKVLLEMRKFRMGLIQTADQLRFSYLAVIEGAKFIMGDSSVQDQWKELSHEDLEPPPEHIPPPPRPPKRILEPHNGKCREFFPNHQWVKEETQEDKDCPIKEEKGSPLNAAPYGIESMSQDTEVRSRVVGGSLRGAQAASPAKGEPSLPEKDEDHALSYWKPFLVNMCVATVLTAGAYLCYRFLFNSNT
Kind of experiment: Inhibition of PTP1B (unknown origin) using p-nitrophenyl phosphate as substrate assessed as p-nitrophenolate ions production at 100 uM after 10 min.

The term inhibition denotes the share of the control response that was lost under treatment. Consider `CCCCC/C=C/CC/C=C/[C@@H](O)[C@H](CO)NC(=O)CCCCCCCCCCCCCCC`, for which the inhibition in experiment [1] is 14.6%; in the experiment filed under Homo sapiens, 11.3%; in experiment [2] it was 4.1%.

Consider `CCCCCCCCCCCCCCCCCCC(=O)OCCCCCCCCCCCCCCCCC`, for which the inhibition in experiment [1] turned out to be 8.56%; in the experiment filed under Homo sapiens, 17.2%; in experiment [2], 11.1%.

As for `CCCCCCCCCCCCCCCCCCOCC(O)CO` (centres undefined), the results for the inhibition (in experiment [1]; in the experiment filed under Homo sapiens; in experiment [2]) were 4.25%, 14.2% and 4.1%, respectively.

As for `CCCCCCCCCCCCCCCCCOC(=O)CCCCCCCCCCCCCCCC`, the inhibition in experiment [1] was 12.7%; in the experiment filed under Homo sapiens it was 18.9%; in experiment [2], 1.3%.

With `C=C(CCCC(C)C)[C@H]1CCC2C3CC=C4C[C@@H](O)CC[C@]4(C)C3CC[C@@]21C` (some centres undefined), the figures for the inhibition (in experiment [1]; in the experiment filed under Homo sapiens; in experiment [2]) were 15.9%, 10.2% and 7.6%, respectively.

Turning to `CCCCCCCCCCCCCCCCO[C@H]1OC[C@H](O[C@H]2OC[C@H](O[C@H]3OC[C@H](O)[C@H](O)[C@H]3O)[C@H](O)[C@H]2O)[C@H](O)[C@H]1O`, the figures for the inhibition (in experiment [1]; in the experiment filed under Homo sapiens; in experiment [2]) were 12%, 10.2% and 0.2%, respectively.

With `CCCCCCCCCCC/C=C/C[C@@H](O)[C@H](CO)NC(=O)[C@H](O)CCCCCCCCCCCCCCCCCC`, the inhibition in experiment [1] came out at 10.2%; in the experiment listed under Homo sapiens it was 9.5%; in experiment [2], 1.3%.

Turning to `CCCCCCCCCCCCCCCCCCCCCCO[C@H]1OC[C@H](O[C@H]2OC[C@H](O[C@H]3OC[C@H](O)[C@H](O)[C@H]3O)[C@H](OC(C)=O)[C@H]2O)[C@H](O)[C@H]1O`, the inhibition in experiment [1] came out at 8.6%; in the experiment listed under Homo sapiens it was 8.9%; in experiment [2] it was 5.9%.

The values above are taken from ChEMBL document CHEMBL3046043, “Antihyperglycaemic activity of Sinularia firma and Sinularia erecta in streptozotocin-induced diabetic rats” (Med Chem Res, 2008).
